Measurements as given in patent publication US20250243180A1, “TARGETED PROTEIN DEGRADATION” (Monte Rosa Therapeutics AG, priority 2023, published 2025).
Like-named read-outs stand apart in the source and are kept apart here.

Assays:
NEK7 = NEK7 (Homo sapiens (Human), UniProt Q8TDX7+Q96SW2); experiment: NEK7 NanoBiT degradation assay in Cal51 NEK7 NanoBiT cell line; assay type: cell-based; conditions: Cal51 NEK7 NanoBiT cells, 24 hours; for Dmax: CAL-51
Procedure, shortened: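 EC50 comes from a 4-parameter fit of control-normalized luminescence. The luminescence reports HiBiT-NEK7 (endogenous knock-in) complemented by stably expressed LgBiT in Cal51 cells after 24 h compound exposure at 37 °C. Final concentrations ran 1 μM to 0.05 nM, with Endurazine substrate present in the medium throughout.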

CRBN-DDB1 = CRBN-DDB1 (Homo sapiens (Human), UniProt Q96SW2); experiment: Compound binding to CRBN by HTRF assay
Sequence of CRBN-DDB1 (Q96SW2 whole entry): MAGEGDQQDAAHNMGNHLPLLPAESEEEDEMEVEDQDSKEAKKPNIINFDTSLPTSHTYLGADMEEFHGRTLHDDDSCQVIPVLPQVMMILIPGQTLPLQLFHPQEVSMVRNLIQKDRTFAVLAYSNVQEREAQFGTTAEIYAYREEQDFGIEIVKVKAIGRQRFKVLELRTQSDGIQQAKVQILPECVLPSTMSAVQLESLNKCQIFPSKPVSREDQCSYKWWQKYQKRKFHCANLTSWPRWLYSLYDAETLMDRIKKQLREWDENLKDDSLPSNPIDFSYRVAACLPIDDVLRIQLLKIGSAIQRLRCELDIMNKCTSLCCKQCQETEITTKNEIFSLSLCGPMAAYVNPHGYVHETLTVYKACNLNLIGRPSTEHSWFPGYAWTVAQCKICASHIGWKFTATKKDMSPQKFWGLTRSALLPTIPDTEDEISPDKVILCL
Sequence of CRBN-DDB1 (Q16531 whole entry partner): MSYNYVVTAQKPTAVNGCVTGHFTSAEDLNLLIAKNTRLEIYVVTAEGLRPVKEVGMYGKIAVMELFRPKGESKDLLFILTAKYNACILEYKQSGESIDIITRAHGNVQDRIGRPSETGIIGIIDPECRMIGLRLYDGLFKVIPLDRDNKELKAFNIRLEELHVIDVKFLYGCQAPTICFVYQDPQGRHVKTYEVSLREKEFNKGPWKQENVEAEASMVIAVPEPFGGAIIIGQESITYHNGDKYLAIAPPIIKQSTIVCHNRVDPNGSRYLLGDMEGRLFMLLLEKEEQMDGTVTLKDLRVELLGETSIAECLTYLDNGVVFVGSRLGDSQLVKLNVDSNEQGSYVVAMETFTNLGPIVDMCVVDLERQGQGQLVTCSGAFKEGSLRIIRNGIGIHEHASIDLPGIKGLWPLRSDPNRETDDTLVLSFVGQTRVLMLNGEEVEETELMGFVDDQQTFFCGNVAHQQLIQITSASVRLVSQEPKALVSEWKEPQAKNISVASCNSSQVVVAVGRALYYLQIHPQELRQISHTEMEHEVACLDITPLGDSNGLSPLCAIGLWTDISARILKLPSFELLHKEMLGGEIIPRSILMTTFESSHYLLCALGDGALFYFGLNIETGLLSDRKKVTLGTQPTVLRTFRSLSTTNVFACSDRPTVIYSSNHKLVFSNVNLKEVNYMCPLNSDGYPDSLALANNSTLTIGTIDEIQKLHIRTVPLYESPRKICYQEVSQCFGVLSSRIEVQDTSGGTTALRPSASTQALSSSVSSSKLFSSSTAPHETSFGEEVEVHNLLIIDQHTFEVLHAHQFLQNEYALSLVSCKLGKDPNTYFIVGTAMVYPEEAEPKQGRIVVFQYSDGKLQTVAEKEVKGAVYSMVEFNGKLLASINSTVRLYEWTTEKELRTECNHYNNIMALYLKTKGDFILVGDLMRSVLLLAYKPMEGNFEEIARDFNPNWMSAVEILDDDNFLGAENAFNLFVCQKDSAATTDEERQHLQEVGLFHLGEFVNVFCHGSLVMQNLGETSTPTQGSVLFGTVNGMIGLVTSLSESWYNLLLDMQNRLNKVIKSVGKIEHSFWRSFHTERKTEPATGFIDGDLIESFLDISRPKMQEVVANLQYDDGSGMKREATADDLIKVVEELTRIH
Procedure, shortened: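 Ki calculated via Cheng-Prusoff from geometric-mean EC50 values, after normalizing the HTRF ratio to lenalidomide (active) and DMSO (neutral) controls. Compounds (11 points, 1:3 steps) incubated 30 min at ambient temperature with CRBN-DDB1 2.5 nM, anti-His Tb cryptate and Cy5-thalidomide tracer 100 nM.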

[1] = NEK7 degradation, read-out: NanoBiT Dmax
[2] = NEK7 degradation, read-out: NanoBiT DC50

Sequence of NEK7 (Q8TDX7 whole entry): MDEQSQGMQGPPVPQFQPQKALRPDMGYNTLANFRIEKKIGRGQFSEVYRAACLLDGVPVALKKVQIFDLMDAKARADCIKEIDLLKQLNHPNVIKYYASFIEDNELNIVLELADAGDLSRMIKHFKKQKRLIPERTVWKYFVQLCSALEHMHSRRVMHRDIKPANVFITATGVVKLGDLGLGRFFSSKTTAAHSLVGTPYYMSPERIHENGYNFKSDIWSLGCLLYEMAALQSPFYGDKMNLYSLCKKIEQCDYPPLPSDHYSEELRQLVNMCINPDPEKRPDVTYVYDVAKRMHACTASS
Sequence of NEK7 (Q96SW2 whole entry): as the sequence (Q96SW2 whole entry) above
Sequence of NEK7 (Q16531 2-1140 partner): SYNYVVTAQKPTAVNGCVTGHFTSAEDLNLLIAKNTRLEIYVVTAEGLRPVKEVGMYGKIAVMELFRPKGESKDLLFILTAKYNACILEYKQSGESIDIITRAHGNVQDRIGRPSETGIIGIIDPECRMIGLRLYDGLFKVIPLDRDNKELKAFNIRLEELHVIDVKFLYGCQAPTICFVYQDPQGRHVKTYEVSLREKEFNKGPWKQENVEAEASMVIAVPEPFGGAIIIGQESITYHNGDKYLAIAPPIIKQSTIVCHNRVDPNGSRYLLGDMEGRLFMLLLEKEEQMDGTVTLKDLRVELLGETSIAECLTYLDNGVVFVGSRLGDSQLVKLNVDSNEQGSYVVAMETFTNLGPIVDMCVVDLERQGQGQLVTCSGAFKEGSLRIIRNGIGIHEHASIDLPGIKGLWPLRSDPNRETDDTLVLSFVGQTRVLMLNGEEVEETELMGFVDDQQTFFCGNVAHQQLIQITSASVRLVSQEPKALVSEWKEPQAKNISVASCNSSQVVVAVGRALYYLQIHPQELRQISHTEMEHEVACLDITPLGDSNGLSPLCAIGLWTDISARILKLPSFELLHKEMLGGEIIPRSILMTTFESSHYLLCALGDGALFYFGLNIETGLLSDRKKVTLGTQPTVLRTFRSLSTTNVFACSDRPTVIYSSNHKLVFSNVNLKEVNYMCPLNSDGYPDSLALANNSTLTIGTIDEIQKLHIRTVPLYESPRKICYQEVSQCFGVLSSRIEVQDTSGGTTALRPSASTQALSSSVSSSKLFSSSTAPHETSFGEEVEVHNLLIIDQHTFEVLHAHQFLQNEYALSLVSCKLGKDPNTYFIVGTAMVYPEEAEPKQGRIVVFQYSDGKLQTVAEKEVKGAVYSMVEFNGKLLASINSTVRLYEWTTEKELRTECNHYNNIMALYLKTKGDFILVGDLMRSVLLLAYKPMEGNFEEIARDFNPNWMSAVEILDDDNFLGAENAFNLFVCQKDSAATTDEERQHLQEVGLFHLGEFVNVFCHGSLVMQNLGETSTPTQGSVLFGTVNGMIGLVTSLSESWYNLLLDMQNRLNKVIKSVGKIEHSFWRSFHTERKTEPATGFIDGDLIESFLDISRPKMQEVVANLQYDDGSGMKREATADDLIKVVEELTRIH

Row | Dmax (NEK7; read-out: NEK7 NanoBiT Dmax) [%] | Dmax (NEK7; [1]) [%] | DC50 (NEK7; read-out: NEK7 NanoBiT DC50) [nM] | DC50 (NEK7; [2]) [nM] | EC50 (CRBN-DDB1) [nM] | EC50 (CRBN-DDB1; HTRF class, Cereblon binding) [nM] | SMILES
1 | 83 | > 75 | 23 | ≤ 100 | 110 | 100 to 1000 | CC(C)(C(=O)NCc1cc(Cl)c(C2CCC(=O)NC2=O)c(Cl)c1)c1cc(C(F)(F)F)on1 (stereo not drawn) [Compound 230, N-(3,5-dichloro-4-(2,6-dioxopiperidin-3-yl)benzyl)-2-methyl-2-(5-(trifluoromethyl)isoxazol-3-yl)propanamide]
2 | 82 | > 75 | 23 | ≤ 100 | 140 | 100 to 1000 | CC(C)(C(=O)NCc1cc(Cl)c(C2CCC(=O)NC2=O)c(Cl)c1)c1ncc(CO)cn1 (stereo not drawn) [Compound 231, N-(3,5-dichloro-4-(2,6-dioxopiperidin-3-yl)benzyl)-2-(5-(hydroxymethyl)pyrimidin-2-yl)-2-methylpropanamide]
3 | 93 | > 75 | 3 | ≤ 100 | 150 | 100 to 1000 | CC(C)(C(=O)NCc1cc(Cl)c(C2CCC(=O)NC2=O)c(Cl)c1)c1cnc(C2CC2)cn1 (stereo not drawn) [Compound 232]
4 | 74 | 50 to 75 | 29 | ≤ 100 | 190 | 100 to 1000 | COCc1nc(C(C)(C)C(=O)NCc2cc(Cl)c(C3CCC(=O)NC3=O)c(Cl)c2)ncc1C (stereo not drawn) [Compound 233, N-(3,5-dichloro-4-(2,6-dioxopiperidin-3-yl)benzyl)-2-(4-(methoxymethyl)-5-methylpyrimidin-2-yl)-2-methylpropanamide]
5 | 97 | > 75 | 1 | ≤ 100 | 70 | ≤ 100 | CCOc1cnc(C(C)(C)C(=O)NCc2cc(Cl)c(C3CCC(=O)NC3=O)c(Cl)c2)cn1 (stereo not drawn) [Compound 234, N-(3,5-dichloro-4-(2,6-dioxopiperidin-3-yl)benzyl)-2-(5-ethoxypyrazin-2-yl)-2-methylpropanamide]
6 | 11 | ≤ 50 | 1000 | > 1000 | 560 | 100 to 1000 | CC(C)(C(=O)NCc1cc(Cl)c(C2CCC(=O)NC2=O)c(Cl)c1)c1ncc(C(=O)O)cn1 (stereo not drawn) [Compound 235, 2-(1-((3,5-dichloro-4-(2,6-dioxopiperidin-3-yl)benzyl)amino)-2-methyl-1-oxopropan-2-yl)pyrimidine-5-carboxylic acid]
7 | 71 | 50 to 75 | 41 | ≤ 100 | 250 | 100 to 1000 | Cc1ocnc1C(C)(C)C(=O)NCc1cc(Cl)c(C2CCC(=O)NC2=O)c(Cl)c1 (stereo not drawn) [Compound 236]
8 | 87 | > 75 | 11 | ≤ 100 | 150 | 100 to 1000 | [2H]C([2H])([2H])C(C(=O)NCc1cc(Cl)c(C2CCC(=O)NC2=O)c(Cl)c1)(c1ncc(C)cn1)C([2H])([2H])[2H] (stereo not drawn) [Compound 237]
9 | 63 | 50 to 75 | 153 | 100 to 1000 | 170 | 100 to 1000 | CC(C)(O)c1cnc(C(C)(C)C(=O)NCc2cc(Cl)c(C3CCC(=O)NC3=O)c(Cl)c2)cn1 (stereo not drawn) [Compound 238, N-(3,5-dichloro-4-(2,6-dioxopiperidin-3-yl)benzyl)-2-(5-(2-hydroxypropan-2-yl)pyrazin-2-yl)-2-methylpropanamide]
10 | 47 | ≤ 50 | 909 | 100 to 1000 | 660 | 100 to 1000 | Cc1nc(CNC(=O)C(C)(C)c2ccccc2)cc(Cl)c1C1CCC(=O)NC1=O (stereo not drawn) [Compound 239, N-((4-chloro-5-(2,6-dioxopiperidin-3-yl)-6-methylpyridin-2-yl)methyl)-2-methyl-2-phenylpropanamide]
11 | 69 | 50 to 75 | 79 | ≤ 100 | 150 | 100 to 1000 | CC(C)(C(=O)NCc1cc(Cl)c(C2CCC(=O)NC2=O)c(Cl)c1)c1cnc(CC(F)F)cn1 (stereo not drawn) [Compound 240]
12 | 86 | > 75 | 15 | ≤ 100 | 140 | 100 to 1000 | Cc1cnc(C(C)(CO)C(=O)NCc2cc(Cl)c(C3CCC(=O)NC3=O)c(Cl)c2)nc1 (stereo not drawn) [Compound 241, N-(3,5-dichloro-4-(2,6-dioxopiperidin-3-yl)benzyl)-3-hydroxy-2-methyl-2-(5-methylpyrimidin-2-yl)propanamide]
13 | 59 | 50 to 75 | 319 | 100 to 1000 | 430 | 100 to 1000 | CC(C)(C(=O)NCc1cc(Cl)c(C2CCC(=O)NC2=O)c(C#N)c1)c1ccccc1 (stereo not drawn) [Compound 242, N-(3-chloro-5-cyano-4-(2,6-dioxopiperidin-3-yl)benzyl)-2-methyl-2-phenylpropanamide]
14 | 48 | ≤ 50 | 672 | 100 to 1000 | 160 | 100 to 1000 | COCCc1cnc(C(C)(C)C(=O)NCc2cc(Cl)c(C3CCC(=O)NC3=O)c(Cl)c2)nc1 (stereo not drawn) [Compound 245, N-(3,5-dichloro-4-(2,6-dioxopiperidin-3-yl)benzyl)-2-(5-(2-methoxyethyl)pyrimidin-2-yl)-2-methylpropanamide]
15 | 82 | > 75 | 27 | ≤ 100 | 180 | 100 to 1000 | CC(C)(C(=O)NCc1ccc(C2CCC(=O)NC2=O)c(Cl)c1)c1nc2ccccc2o1 (stereo not drawn) [Compound 246, 2-(benzo[d]oxazol-2-yl)-N-(3-chloro-4-(2,6-dioxopiperidin-3-yl)benzyl)-2-methylpropanamide]
16 | 83 | > 75 | 20 | ≤ 100 | 120 | 100 to 1000 | CCc1cnc(C(C)(C)C(=O)NCc2cc(Cl)c(C3CCC(=O)NC3=O)c(Cl)c2)cn1 (stereo not drawn) [Compound 247]
17 | 95 | > 75 | 2 | ≤ 100 | 70 | ≤ 100 | CC(C)(C(=O)NCc1cc(Cl)c(C2CCC(=O)NC2=O)c(Cl)c1)c1cnc(Cl)cn1 (stereo not drawn) [Compound 248]
18 | 87 | > 75 | 7 | ≤ 100 | 70 | ≤ 100 | CC(C)(C(=O)NCc1cc(F)c(C2CCC(=O)NC2=O)c(Cl)c1)c1nc2ccccc2o1 (stereo not drawn) [Compound 249]
19 | 96 | > 75 | 2 | ≤ 100 | 70 | ≤ 100 | COc1ccc(C(C)(C)C(=O)NCc2cc(F)c(C3CCC(=O)NC3=O)c(Cl)c2)cn1 (stereo not drawn) [Compound 250]
20 | 92 | > 75 | 4 | ≤ 100 | 80 | ≤ 100 | COc1cnc(C(C)(C)C(=O)NCc2cc(F)c(C3CCC(=O)NC3=O)c(Cl)c2)cn1 (stereo not drawn) [Compound 251]
21 | 93 | > 75 | 3 | ≤ 100 | 50 | ≤ 100 | CCOc1cnc(C(C)(C)C(=O)NCc2cc(F)c(C3CCC(=O)NC3=O)c(Cl)c2)cn1 (stereo not drawn) [Compound 252]
22 | 45 | ≤ 50 | 778 | 100 to 1000 | 140 | 100 to 1000 | Cc1cnc(C(C)(C)C(=O)NCc2cc(F)c(C3CCC(=O)NC3=O)c(Cl)c2)nc1 (stereo not drawn) [Compound 253]
23 | 55 | 50 to 75 | 278 | 100 to 1000 | 120 | 100 to 1000 | Cc1coc(C(C)(C)C(=O)NCc2cc(F)c(C3CCC(=O)NC3=O)c(Cl)c2)n1 (stereo not drawn) [Compound 254]
24 | 54 | 50 to 75 | 464 | 100 to 1000 | 90 | ≤ 100 | CC(F)(F)c1cnc(C(C)(C)C(=O)NCc2cc(F)c(C3CCC(=O)NC3=O)c(Cl)c2)cn1 (stereo not drawn) [Compound 255]
25 | 85 | > 75 | 11 | ≤ 100 | 80 | ≤ 100 | COc1cnc(C(C)(C)C(=O)NCc2cc(F)c(C3CCC(=O)NC3=O)c(Cl)c2)nc1 (stereo not drawn) [Compound 256]
26 | 95 | > 75 | 1 | ≤ 100 | 50 | ≤ 100 | CC(C)(C(=O)NCc1cc(Cl)c(C2CCC(=O)NC2=O)c(Cl)c1)c1cnc(OC(F)F)cn1 (stereo not drawn) [Compound 257]
27 | 91 | > 75 | 4 | ≤ 100 | 70 | ≤ 100 | CCOc1ccc(C(C)(C)C(=O)NCc2cc(F)c(C3CCC(=O)NC3=O)c(Cl)c2)nn1 (stereo not drawn) [Compound 258]
28 | 91 | > 75 | 6 | ≤ 100 | 90 | ≤ 100 | CC(C)(C(=O)NCc1cc(Cl)c(C2CCC(=O)NC2=O)c(Cl)c1)c1cnc(OC(F)(F)F)cn1 (stereo not drawn) [Compound 259]
